Laboratory results published in ChEMBL document CHEMBL1154564 (J Nat Prod, 2000).

Columns and labels:
[1] = target: T1, Alpha-1A adrenergic receptor (Rattus norvegicus, UniProt P43140); assay: Displacement of [3H]prazosin from adrenergic alpha1A receptor in rat brain membrane; type: cell membranes
T1 sequence (P43140 whole entry): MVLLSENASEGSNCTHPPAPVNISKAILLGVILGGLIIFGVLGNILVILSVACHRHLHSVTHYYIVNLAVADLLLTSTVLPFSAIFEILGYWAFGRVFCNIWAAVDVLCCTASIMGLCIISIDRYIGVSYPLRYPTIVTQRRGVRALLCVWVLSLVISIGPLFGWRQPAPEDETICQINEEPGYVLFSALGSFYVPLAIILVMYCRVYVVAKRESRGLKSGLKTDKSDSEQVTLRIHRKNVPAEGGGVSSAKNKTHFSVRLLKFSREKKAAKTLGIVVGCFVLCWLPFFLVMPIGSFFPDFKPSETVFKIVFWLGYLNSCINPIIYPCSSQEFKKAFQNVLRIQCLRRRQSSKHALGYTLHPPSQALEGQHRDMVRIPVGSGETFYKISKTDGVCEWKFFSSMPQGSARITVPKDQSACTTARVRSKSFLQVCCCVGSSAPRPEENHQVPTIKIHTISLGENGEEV

[2] = target: T2, Alpha-1B adrenergic receptor (Rattus norvegicus, UniProt P15823); assay: Displacement of [3H]prazosin from adrenergic Alpha-1B receptor in rat brain membrane; type: cell membranes
T2 sequence (P15823 whole entry): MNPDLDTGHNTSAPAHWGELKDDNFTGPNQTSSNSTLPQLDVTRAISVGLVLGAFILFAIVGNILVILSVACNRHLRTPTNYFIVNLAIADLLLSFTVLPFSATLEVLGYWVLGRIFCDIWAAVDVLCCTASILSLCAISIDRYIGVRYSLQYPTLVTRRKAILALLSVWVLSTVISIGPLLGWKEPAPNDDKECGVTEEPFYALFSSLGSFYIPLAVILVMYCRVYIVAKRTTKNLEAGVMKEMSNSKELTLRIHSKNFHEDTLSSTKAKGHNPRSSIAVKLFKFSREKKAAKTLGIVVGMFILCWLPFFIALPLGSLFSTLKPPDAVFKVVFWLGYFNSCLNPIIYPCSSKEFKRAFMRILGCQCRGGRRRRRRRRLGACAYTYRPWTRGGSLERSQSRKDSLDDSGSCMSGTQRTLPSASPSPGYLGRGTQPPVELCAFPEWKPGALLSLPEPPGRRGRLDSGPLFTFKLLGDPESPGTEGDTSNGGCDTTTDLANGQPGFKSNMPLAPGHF

Rattus norvegicus [3] = organism: Rattus norvegicus; assay: Selectivity ratio of IC50 for rat adrenergic alpha1A receptor to IC50 for adrenergic Alpha-1B receptor
Rattus norvegicus [4] = organism: Rattus norvegicus; assay: Selectivity ratio of IC50 for Wistar rat dopamine D2 receptor to IC50 for Wistar rat dopamine D1 receptor
D(1A) dopamine receptor = D(1A) dopamine receptor (Rattus norvegicus, UniProt P18901); assay: Displacement of [3H]SCH23390 from dopamine D1 receptor in Wistar rat striatal membrane; type: cell membranes, Striatum
D(2) dopamine receptor = D(2) dopamine receptor (Rattus norvegicus, UniProt P61169); assay: Displacement of [3H]raclopride from dopamine D2 receptor in Wistar rat striatal membrane; type: cell membranes, Striatum
Sequence of D(2) dopamine receptor (P61169 whole entry): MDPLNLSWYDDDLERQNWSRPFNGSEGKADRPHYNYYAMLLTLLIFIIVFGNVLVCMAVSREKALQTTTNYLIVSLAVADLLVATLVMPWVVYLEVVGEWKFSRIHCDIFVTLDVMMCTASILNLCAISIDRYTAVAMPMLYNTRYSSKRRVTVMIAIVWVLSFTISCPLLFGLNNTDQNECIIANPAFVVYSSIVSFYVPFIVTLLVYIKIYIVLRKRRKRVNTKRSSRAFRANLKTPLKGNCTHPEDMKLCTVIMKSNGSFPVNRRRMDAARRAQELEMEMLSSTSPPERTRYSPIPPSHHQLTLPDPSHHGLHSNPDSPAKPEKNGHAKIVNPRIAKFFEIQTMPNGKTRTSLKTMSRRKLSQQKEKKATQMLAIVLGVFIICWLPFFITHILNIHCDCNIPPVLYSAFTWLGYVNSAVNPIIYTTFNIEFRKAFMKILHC

Sequence of D(1A) dopamine receptor (P18901 whole entry): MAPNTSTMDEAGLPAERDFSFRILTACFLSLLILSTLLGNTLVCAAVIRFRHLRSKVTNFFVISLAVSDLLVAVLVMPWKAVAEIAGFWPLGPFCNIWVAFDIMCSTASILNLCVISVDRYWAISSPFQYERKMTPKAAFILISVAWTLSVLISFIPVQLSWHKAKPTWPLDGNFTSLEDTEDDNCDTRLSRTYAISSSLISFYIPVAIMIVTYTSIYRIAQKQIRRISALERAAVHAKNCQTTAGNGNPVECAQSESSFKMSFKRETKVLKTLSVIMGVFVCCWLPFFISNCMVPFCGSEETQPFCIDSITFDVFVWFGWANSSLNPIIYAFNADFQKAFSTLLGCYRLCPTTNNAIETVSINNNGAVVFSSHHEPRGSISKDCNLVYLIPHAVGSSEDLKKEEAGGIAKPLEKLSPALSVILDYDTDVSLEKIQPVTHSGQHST

`COc1cc2c(cc1O)C[C@H]1c3c(c(Cl)c(O)c(OC)c3-2)CCN1C` gave a Ki [1] of 2.24 nM, a Ki [2] of 269 nM and a Ratio (Rattus norvegicus [3]) of 122. The Ratio IC50 (Rattus norvegicus [4]) was 8.9, the IC50 (D(1A) dopamine receptor) was 81 nM and the IC50 (D(2) dopamine receptor) was 720 nM.

`COc1cc2c(c(Br)c1O)C[C@H]1c3c(c(Br)c(O)c(OC)c3-2)CCN1C` was tested, and the Ki [1] was 1.35 nM, the Ki [2] was 120 nM and the Ratio (Rattus norvegicus [3]) was 90. For the same compound, the Ratio IC50 (Rattus norvegicus [4]) was 9.3, the IC50 (D(1A) dopamine receptor) was 206 nM and the IC50 (D(2) dopamine receptor) was 1910 nM.

Compound `COc1cc2c(cc1O)C[C@H]1c3c(c(Br)c(O)c(OC)c3-2)CCN1C` [3-BROMOBOLDINE] has a Ki [1] of 1.17 nM, a Ki [2] of 135 nM and a Ratio (Rattus norvegicus [3]) of 120. For the same compound, the Ratio IC50 (Rattus norvegicus [4]) was 15.9, the IC50 (D(1A) dopamine receptor) was 66 nM and the IC50 (D(2) dopamine receptor) was 1050 nM.

For `COc1cc2c(cc1O)C[C@H]1c3c(cc(O)c(OC)c3-2)CCN1C` [BOLDINE], the Ki [1] was 4.9 nM and the Ki [2] was 316 nM.

For `COc1cc2c(cc1O)C[C@H]1c3c(c(I)c(O)c(OC)c3-2)CCN1C`, the Ratio IC50 (Rattus norvegicus [4]) was 32, the IC50 (D(1A) dopamine receptor) was 3 nM and the IC50 (D(2) dopamine receptor) was 96 nM.
